From article PMC11571207, “Stereorandomized Oncocins with Preserved Ribosome Binding and Antibacterial Activity” (Journal of Medicinal Chemistry, 2024)
No end group written: not given here.

Legend:
K. pneumoniae NCTC 418 = test: microbe, parasite or virus in culture; conditions: for MIC K. pneumoniae NCTC418: supplement CSV
In short: (§1)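 Read-out was visible growth after MTT addition, the MIC being the lowest inhibitory peptide concentration. Bacteria grown to log phase in LB were exposed in MH medium to peptide from 64 μg/mL in twofold dilutions for 15-18h at 37°C.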

P. aeruginosa PAO1 = test: microbe, parasite or virus in culture; conditions: for MIC P. aeruginosa PAO1: supplement CSV
In short: as §1

A. baumannii ATCC19606 = test: microbe, parasite or virus in culture; conditions: for MIC A. baumannii ATCC19606: supplement CSV
In short: as §1

E. coli W3110 = test: microbe, parasite or virus in culture; conditions: for MIC E. coli W3110: supplement CSV
In short: as §1

S. aureus COL (MRSA) = test: microbe, parasite or virus in culture; conditions: for MIC S. aureus COL (MRSA): supplement CSV
In short: as §1

human red blood cells = test: Hemolysis assay, minimum hemolytic concentration

With “VDKPPYLPRPRPPRRIYNR [srP45-Onc] (VDKPPYLPRPRPPRRIYNR-NH2; also: residues 4-5 (Pro-Pro) stereorandomized (1:1 L/D mixture))” the “MIC K. pneumoniae, 12.5% MHB” value (K. pneumoniae NCTC 418; K. pneumoniae NCTC 418, 12.5% Müller–Hinton medium, 16–20 h at 37 °C) was 8 µg/mL, the “MIC K. pneumoniae, Full MHB” value (K. pneumoniae NCTC 418; K. pneumoniae NCTC 418, full Müller–Hinton medium, 16–20 h at 37 °C) was 16 µg/mL and the “MIC K. pneumoniae NCTC418” value (K. pneumoniae NCTC 418; 12.5% MH pH 7.4) was 8 µg/mL. For the same sequence, the “MIC K. pneumoniae NCTC418” value (K. pneumoniae NCTC 418; full MH pH 7.4) was 16 µg/mL, the “MIC P. aeruginosa, 12.5% MHB” value (P. aeruginosa PAO1; P. aeruginosa PAO1, 12.5% Müller–Hinton medium, 16–20 h at 37 °C) was greater than 16 µg/mL and the “MIC P. aeruginosa, Full MHB” value (P. aeruginosa PAO1; P. aeruginosa PAO1, full Müller–Hinton medium, 16–20 h at 37 °C) was greater than 64 µg/mL. The “MIC P. aeruginosa PAO1” value (P. aeruginosa PAO1; 12.5% MH pH 7.4) was greater than 16 µg/mL, the “MIC P. aeruginosa PAO1” value (P. aeruginosa PAO1; full MH pH 7.4) was greater than 64 µg/mL and the “MIC A. baumannii, 12.5% MHB” value (A. baumannii ATCC19606; A. baumannii ATCC19606, 12.5% Müller–Hinton medium, 16–20 h at 37 °C) was 8 µg/mL. The “MIC A. baumannii, Full MHB” value (A. baumannii ATCC19606; A. baumannii ATCC19606, full Müller–Hinton medium, 16–20 h at 37 °C) was 64 µg/mL, the “MIC A. baumannii ATCC19606” value (A. baumannii ATCC19606; 12.5% MH pH 7.4) was 8 µg/mL and the “MIC A. baumannii ATCC19606” value (A. baumannii ATCC19606; full MH pH 7.4) was 64 µg/mL. The “MIC E. coli, 12.5% MHB” value (E. coli W3110; E. coli W3110, 12.5% Müller–Hinton medium, 16–20 h at 37 °C, broth microdilution) was 4 µg/mL, the “MIC E. coli, Full MHB” value (E. coli W3110; E. coli W3110, full Müller–Hinton medium, 16–20 h at 37 °C, broth microdilution) was 16 µg/mL and the “MIC E. coli W3110” value (E. coli W3110; 12.5% MH pH 7.4) was 4 µg/mL. The “MIC E. coli W3110” value (E. coli W3110; full MH pH 7.4) was 16 µg/mL, the “MIC S. aureus, 12.5% MHB” value (S. aureus COL (MRSA); S. aureus COL (MRSA), 12.5% Müller–Hinton medium, 16–20 h at 37 °C) was >64 / 64 μg/mL and the “MIC S. aureus, Full MHB” value (S. aureus COL (MRSA); S. aureus COL (MRSA), full Müller–Hinton medium, 16–20 h at 37 °C) was >64 / 64 μg/mL. For the same sequence, the “MIC S. aureus COL (MRSA)” value (S. aureus COL (MRSA); 12.5% MH pH 7.4) was 64 µg/mL, the “MIC S. aureus COL (MRSA)” value (S. aureus COL (MRSA); full MH pH 7.4) was greater than 64 µg/mL and the “Haemolysis on hRBC, MHC” value (human red blood cells; 2.5% human red blood cells (final) in 10 mM phosphate, 150 mM NaCl, pH 7.4, 25 °C, 4 h, visual inspection) was greater than 1000 µg/mL. For the same sequence, the “MHC human red blood cells” value (human red blood cells; supplement CSV) was greater than 1000 µg/mL.
